From ChEMBL document CHEMBL4842352, “Novel diarylamides and diarylureas with N-substitution dependent activity against medulloblastoma” (Eur J Med Chem, 2021)
The source made the active and inactive calls. The rule behind the calls is not given here.

Experiments:
ONS-76 [1] = test: Cytotoxicity against human ONS-76 cells assessed as reduction in cell viability incubated for 72 hrs by MTT assay; format: functional, cell-based; settings: ONS-76, 72 h
Daoy [2] = test: Cytotoxicity against human DAOY cells assessed as reduction in cell viability incubated for 72 hrs by MTT assay; format: functional, cell-based
Daoy [3] = test: Potency index, ratio of 1-(naphthalen-1-yl)-3-(3,4,5-trimethoxyphenyl)urea IC50 to test compound IC50 for cytotoxicity against human DAOY cells assessed as reduction in cell viability incubated for 72 hrs by MTT assay; format: functional
[4] = target: Vascular endothelial growth factor receptor 2 (Homo sapiens) (UniProt P35968); test: Inhibition of VEGFR2 (unknown origin) at 100 uM
Sequence of Vascular endothelial growth factor receptor 2 (Homo sapiens) (P35968 whole entry): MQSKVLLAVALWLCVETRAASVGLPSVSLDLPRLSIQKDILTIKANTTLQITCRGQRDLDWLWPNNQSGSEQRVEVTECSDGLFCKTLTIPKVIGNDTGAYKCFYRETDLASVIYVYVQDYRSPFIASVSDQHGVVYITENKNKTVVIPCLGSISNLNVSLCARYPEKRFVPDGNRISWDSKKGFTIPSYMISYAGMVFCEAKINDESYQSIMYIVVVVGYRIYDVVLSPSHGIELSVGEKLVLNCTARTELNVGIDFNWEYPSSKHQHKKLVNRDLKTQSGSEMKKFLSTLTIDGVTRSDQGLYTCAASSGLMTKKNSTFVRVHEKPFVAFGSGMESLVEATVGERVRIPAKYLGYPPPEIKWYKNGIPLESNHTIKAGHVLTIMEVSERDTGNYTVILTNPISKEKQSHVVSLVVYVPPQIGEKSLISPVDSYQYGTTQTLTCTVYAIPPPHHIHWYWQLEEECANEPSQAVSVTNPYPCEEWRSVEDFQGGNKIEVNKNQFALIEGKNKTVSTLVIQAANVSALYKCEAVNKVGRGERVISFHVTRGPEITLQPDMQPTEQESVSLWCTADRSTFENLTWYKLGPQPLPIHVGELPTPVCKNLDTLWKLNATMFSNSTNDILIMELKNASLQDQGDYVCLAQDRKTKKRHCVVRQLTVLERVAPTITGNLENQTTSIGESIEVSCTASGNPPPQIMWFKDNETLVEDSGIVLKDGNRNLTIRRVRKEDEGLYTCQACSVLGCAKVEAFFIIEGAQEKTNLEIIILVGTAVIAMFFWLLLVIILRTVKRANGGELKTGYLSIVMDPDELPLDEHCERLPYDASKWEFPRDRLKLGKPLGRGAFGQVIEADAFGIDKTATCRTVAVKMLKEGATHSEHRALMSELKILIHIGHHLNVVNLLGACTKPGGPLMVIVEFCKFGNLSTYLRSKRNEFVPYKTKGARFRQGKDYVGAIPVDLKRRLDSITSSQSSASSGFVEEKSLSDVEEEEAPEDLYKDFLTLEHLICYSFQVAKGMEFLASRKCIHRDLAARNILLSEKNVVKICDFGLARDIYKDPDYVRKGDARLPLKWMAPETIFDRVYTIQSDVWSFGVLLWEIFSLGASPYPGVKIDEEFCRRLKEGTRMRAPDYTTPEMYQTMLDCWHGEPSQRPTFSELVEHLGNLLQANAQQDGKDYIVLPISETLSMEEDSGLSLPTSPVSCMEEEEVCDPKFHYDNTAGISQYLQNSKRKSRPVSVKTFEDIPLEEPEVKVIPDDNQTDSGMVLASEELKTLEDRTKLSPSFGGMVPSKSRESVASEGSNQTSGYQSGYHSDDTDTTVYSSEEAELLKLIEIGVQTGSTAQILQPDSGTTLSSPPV

[5] = target: T1, Aurora kinase A (Homo sapiens) (UniProt O14965); test: Inhibition of Aurora A (unknown origin) at 100 uM relative to control
T1 sequence (whole entry): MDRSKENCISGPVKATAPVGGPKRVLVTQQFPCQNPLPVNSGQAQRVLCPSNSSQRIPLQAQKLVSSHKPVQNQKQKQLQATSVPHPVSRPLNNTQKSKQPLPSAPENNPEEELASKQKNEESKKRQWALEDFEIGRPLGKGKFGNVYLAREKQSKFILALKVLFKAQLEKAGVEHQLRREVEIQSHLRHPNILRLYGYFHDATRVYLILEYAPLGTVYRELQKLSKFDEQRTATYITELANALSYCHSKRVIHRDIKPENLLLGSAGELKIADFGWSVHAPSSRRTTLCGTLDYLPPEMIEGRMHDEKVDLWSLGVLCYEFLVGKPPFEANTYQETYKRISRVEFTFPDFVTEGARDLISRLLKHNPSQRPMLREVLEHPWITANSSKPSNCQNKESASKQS

[6] = target: Insulin-like growth factor 1 receptor (Homo sapiens) (UniProt P08069); test: Inhibition of IGF-1R (unknown origin) at 100 uM
Sequence of Insulin-like growth factor 1 receptor (Homo sapiens) (P08069 31-736 limits assumed): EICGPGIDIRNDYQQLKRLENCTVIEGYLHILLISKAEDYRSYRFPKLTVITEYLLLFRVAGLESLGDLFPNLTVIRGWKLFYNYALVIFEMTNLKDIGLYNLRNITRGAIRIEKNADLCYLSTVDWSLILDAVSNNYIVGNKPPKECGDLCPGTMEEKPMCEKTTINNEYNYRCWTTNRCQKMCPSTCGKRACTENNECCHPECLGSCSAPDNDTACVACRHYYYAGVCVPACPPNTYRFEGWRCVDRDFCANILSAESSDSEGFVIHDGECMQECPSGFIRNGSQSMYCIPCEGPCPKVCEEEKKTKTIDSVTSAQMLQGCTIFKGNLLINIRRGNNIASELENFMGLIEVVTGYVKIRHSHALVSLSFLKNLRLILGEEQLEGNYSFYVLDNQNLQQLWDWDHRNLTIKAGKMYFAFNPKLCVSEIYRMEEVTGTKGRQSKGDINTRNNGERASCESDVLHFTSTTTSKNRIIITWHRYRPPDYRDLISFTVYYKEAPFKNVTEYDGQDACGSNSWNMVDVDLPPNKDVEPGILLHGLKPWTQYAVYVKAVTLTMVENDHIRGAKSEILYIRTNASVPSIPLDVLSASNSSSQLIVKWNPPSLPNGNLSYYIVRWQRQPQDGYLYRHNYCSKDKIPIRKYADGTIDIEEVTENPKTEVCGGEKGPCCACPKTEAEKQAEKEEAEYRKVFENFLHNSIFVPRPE
Sequence of Insulin-like growth factor 1 receptor (Homo sapiens) (P08069 741-1367 limits assumed): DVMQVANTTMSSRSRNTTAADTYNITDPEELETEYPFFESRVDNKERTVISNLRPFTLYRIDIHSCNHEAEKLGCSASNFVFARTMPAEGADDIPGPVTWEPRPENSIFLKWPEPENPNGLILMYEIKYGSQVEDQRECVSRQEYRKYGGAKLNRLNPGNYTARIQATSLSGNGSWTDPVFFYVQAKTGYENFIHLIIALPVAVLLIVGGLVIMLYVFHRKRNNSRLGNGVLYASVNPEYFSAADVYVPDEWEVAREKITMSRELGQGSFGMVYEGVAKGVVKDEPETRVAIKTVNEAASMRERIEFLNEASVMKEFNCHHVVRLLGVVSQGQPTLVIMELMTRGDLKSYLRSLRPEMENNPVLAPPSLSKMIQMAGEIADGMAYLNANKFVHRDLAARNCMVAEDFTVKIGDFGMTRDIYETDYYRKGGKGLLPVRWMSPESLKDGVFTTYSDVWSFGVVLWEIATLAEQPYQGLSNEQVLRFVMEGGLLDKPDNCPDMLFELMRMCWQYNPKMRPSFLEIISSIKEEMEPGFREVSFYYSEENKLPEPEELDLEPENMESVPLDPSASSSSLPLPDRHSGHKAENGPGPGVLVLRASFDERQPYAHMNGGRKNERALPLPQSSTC

ONS-76 [7] = test: Potency index, ratio of 1-(naphthalen-1-yl)-3-(3,4,5-trimethoxyphenyl)urea IC50 to test compound IC50 for cytotoxicity against human ONS-76 cells assessed as reduction in cell viability incubated for 72 hrs by MTT assay; format: functional
[8] = target: Cyclin-dependent kinase 2 (Homo sapiens) (UniProt P24941); test: Inhibition of CDK2 (unknown origin) at 100 uM

SMILES	IC50 (ONS-76 [1])	IC50 (Daoy [2])	other results
COc1cc(N(C)C(=O)c2cccc(F)c2)cc(OC)c1OC	≥ 125 µM	≥ 125 µM	–
COc1cc(NC(=O)Nc2cccc3ncccc23)cc(OC)c1OC	≥ 125 µM	4 µM	Ratio IC50 (Daoy [3]): 1.5
COc1cc(N(C)C(=O)N(C)c2cccc(F)c2)cc(OC)c1OC	≥ 125 µM	≥ 125 µM	–
COc1cc(N(C)C(=O)c2ccc([N+](=O)[O-])cc2)cc(OC)c1OC	≥ 125 µM	≥ 125 µM	–
COc1cc(NC(=O)c2ccccc2)cc(OC)c1OC	≥ 125 µM	≥ 125 µM	–
COc1cc(N(C)C(=O)N(C)c2ccc(F)cc2)cc(OC)c1OC	≥ 125 µM	≥ 125 µM	–
COc1cc(NC(=O)Nc2cccc(F)c2)cc(OC)c1OC	65.5 µM	111 µM	–
COc1ccc(C(=O)N(C)c2cc(OC)c(OC)c(OC)c2)cc1	≥ 125 µM	≥ 125 µM	–
COc1cc(NC(=O)c2cccc([N+](=O)[O-])c2)cc(OC)c1OC	≥ 125 µM	≥ 125 µM	–
COc1ccc(C(=O)Nc2cc(OC)c(OC)c(OC)c2)cc1	≥ 125 µM	≥ 125 µM	–
COc1cc(NC(=O)c2ccc([N+](=O)[O-])cc2)cc(OC)c1OC	≥ 125 µM	52.9 µM	–
COc1cc(N(C)C(=O)c2cccc3ccccc23)cc(OC)c1OC	65.7 µM	≥ 125 µM	–
COc1cc(NC(=O)Nc2ccc3c(ccn3C)c2)cc(OC)c1OC	≥ 125 µM	0.16 µM	Ratio IC50 (Daoy [3]): 36.5
COc1cc(NC(=O)Nc2cccc3cc(O)ccc23)cc(OC)c1OC	≥ 125 µM	≥ 125 µM	–
COc1ccc(NC(=O)Nc2cc(OC)c(OC)c(OC)c2)cc1	12.9 µM	14.8 µM	–
COc1cc(NC(=O)Nc2cccc3cc[nH]c23)cc(OC)c1OC	≥ 125 µM	≥ 125 µM	–
COc1cc(NC(=O)Nc2cccc3ccccc23)cc(OC)c1OC	2.45 µM	5.84 µM	–

SMILES	IC50 (ONS-76 [1])	IC50 (Daoy [2])	other results
COc1cc(N(C)C(=O)N(C)c2cccc3ccccc23)cc(OC)c1OC	≥ 125 µM	≥ 125 µM	–
COc1cc(NC(=O)Nc2cccc3c2CCC3)cc(OC)c1OC	≥ 125 µM	0.47 µM	Ratio IC50 (Daoy [3]): 12.4
COc1cc(NC(=O)Nc2ccc(O)c3ccccc23)cc(OC)c1OC	2.5 µM	0.1 µM	inhibition [4]: inactive; inhibition [5]: 30%; Ratio IC50 (Daoy [3]): 58.4; inhibition [6]: inactive; Ratio IC50 (ONS-76 [7]): 0.98; inhibition [8]: inactive
COc1cc(NC(=O)c2cccc3ccccc23)cc(OC)c1OC	26.8 µM	48.7 µM	–
COc1cc(NC(=O)c2cccc(F)c2)cc(OC)c1OC	≥ 125 µM	≥ 125 µM	–
COc1cc(N(C)C(=O)N(C)c2cccc([N+](=O)[O-])c2)cc(OC)c1OC	≥ 125 µM	≥ 125 µM	–
COc1cc(NC(=O)Nc2cccc([N+](=O)[O-])c2)cc(OC)c1OC	79.6 µM	82.5 µM	–
COc1cc(NC(=O)Nc2ccc(F)cc2)cc(OC)c1OC	63.2 µM	104 µM	–
COc1cc(NC(=O)c2ccc(F)cc2)cc(OC)c1OC	≥ 125 µM	≥ 125 µM	–
COc1cc(N(C)C(=O)N(C)c2ccc([N+](=O)[O-])cc2)cc(OC)c1OC	≥ 125 µM	≥ 125 µM	–
COc1cc(NC(=O)Nc2c3ccccc3cc3ccccc23)cc(OC)c1OC	10 µM	≥ 125 µM	Ratio IC50 (ONS-76 [7]): 0.25
COc1cc(N(C)C(=O)c2cccc([N+](=O)[O-])c2)cc(OC)c1OC	≥ 125 µM	≥ 125 µM	–
COc1cc(NC(=O)Nc2ccc([N+](=O)[O-])cc2)cc(OC)c1OC	35 µM	70.8 µM	–
COc1cc(NC(=O)Nc2cccc3cc4ccccc4cc23)cc(OC)c1OC	10 µM	1.25 µM	Ratio IC50 (Daoy [3]): 4.7; Ratio IC50 (ONS-76 [7]): 0.25
COc1cc(N(C)C(=O)c2ccc(F)cc2)cc(OC)c1OC	≥ 125 µM	≥ 125 µM	–
COc1ccc(N(C)C(=O)N(C)c2cc(OC)c(OC)c(OC)c2)cc1	≥ 125 µM	≥ 125 µM	–
COc1cc(N(C)C(=O)c2ccccc2)cc(OC)c1OC	≥ 125 µM	≥ 125 µM	–
